{"source": "patent US8952024B2", "about": "“Herbicidal pyrimidone derivatives” (E I du Pont de Nemours and Company, priority 2009, dated 2015)", "type_in_all_cases": "in vivo", "key": {"[1]": {"system": "barnyardgrass (Echinochloa crus-galli)", "test": "Test B flooded paddy test", "details": "for Plant response rating, Barnyardgrass: Flood (flooded paddy test), 13 to 15 days", "source_text": "(§1) Plant species in the flooded paddy test consisted of rice (Oryza sativa), umbrella sedge (Cyperus difformis), ducksalad (Heteranthera limosa) and barnyardgrass (Echinochloa crus-galli) grown to the 2-leaf stage for testing. At the time of treatment, test pots were flooded with water to 3 cm above the soil surface, treated by application of test compounds directly to the paddy water, and then maintained at that water depth for the duration of the test.\n(§2) Treated plants and controls were maintained in a greenhouse for 13 to 15 days, after which time all treated plants were visually evaluated and compared to controls. Plant response ratings, summarized in Table B, are based on a scale of 0 to 100 where 0 is no effect and 100 is complete control. A dash (-) response means no test result."}, "[2]": {"system": "umbrella sedge (Cyperus difformis)", "test": "Test B flooded paddy test", "details": "for Plant response rating, Sedge, Umbrella: Flood (flooded paddy test), 13 to 15 days", "source_text": "as §1, §2"}, "[3]": {"system": "ducksalad (Heteranthera limosa)", "test": "Test B flooded paddy test", "details": "for Plant response rating, Ducksalad: Flood (flooded paddy test), 13 to 15 days", "source_text": "as §1, §2"}, "rice (Oryza sativa)": {"system": "rice (Oryza sativa)", "test": "Test B flooded paddy test", "details": "for Plant response rating, Rice: Flood (flooded paddy test), 13 to 15 days", "source_text": "as §1, §2"}, "[4]": {"system": "velvetleaf (Abutilon theophrasti)", "test": "Test A pre-/postemergence plant response", "source_text": "(§3) Seeds of barnyardgrass (Echinochloa crus-galli), large crabgrass (Digitaria sanguinalis), giant foxtail (Setaria faberii), morningglory (Ipomoea spp.), pigweed (Amaranthus retroflexus), velvetleaf (Abutilon theophrasti), wheat (Triticum aestivum) and corn (Zea mays) were planted into a blend of loam soil and sand and treated preemergence with a directed soil spray using test chemicals formulated in a non-phytotoxic solvent mixture which included a surfactant. At the same time these species were also treated with postemergence applications of test compounds formulated in the same manner.\n(§4) Plants ranged in height from two to ten cm and were in the one- to two-leaf stage for the postemergence treatment. Treated plants and untreated controls were maintained in a greenhouse for approximately ten days, after which time all treated plants were compared to untreated controls and visually evaluated for injury. Plant response ratings, summarized in Table A, are based on a 0 to 100 scale where 0 is no effect and 100 is complete control. A dash (-) response means no test result."}, "[5]": {"system": "barnyardgrass (Echinochloa crus-galli)", "test": "Test A pre-/postemergence plant response", "source_text": "as §3, §4"}, "[6]": {"system": "giant foxtail (Setaria faberii)", "test": "Test A pre-/postemergence plant response", "source_text": "as §3, §4"}, "corn (Zea mays)": {"system": "corn (Zea mays)", "test": "Test A pre-/postemergence plant response", "source_text": "as §3, §4"}, "[7]": {"system": "morningglory (Ipomoea spp.)", "test": "Test A pre-/postemergence plant response", "source_text": "as §3, §4"}, "[8]": {"system": "pigweed (Amaranthus retroflexus)", "test": "Test A pre-/postemergence plant response", "source_text": "as §3, §4"}, "[9]": {"system": "large crabgrass (Digitaria sanguinalis)", "test": "Test A pre-/postemergence plant response", "source_text": "as §3, §4"}, "[10]": {"system": "wheat (Triticum aestivum)", "test": "Test A pre-/postemergence plant response", "source_text": "as §3, §4"}, "[11]": {"details": "250 g ai/ha, flooded paddy test, visual rating on 0 to 100 scale (0 no effect, 100 complete control) after 13 to 15 days"}, "[12]": {"details": "31 g ai/ha, scale of 0 to 100 where 0 is no effect and 100 is complete control"}, "[13]": {"details": "62 g ai/ha, scale 0 to 100, 0 is no effect, 100 is complete control"}, "[14]": {"details": "125 g ai/ha, scale 0 to 100, 0 is no effect, 100 is complete control"}, "[15]": {"details": "Postemergence, 125 g ai/ha, visual injury, 0 to 100 scale (0 no effect, 100 complete control), approx. ten days"}, "[16]": {"details": "Postemergence, 500 g ai/ha, 0 to 100 scale, 0 = no effect, 100 = complete control, approx. ten days"}, "[17]": {"details": "Preemergence, 125 g ai/ha, 0 to 100 scale, 0 = no effect, 100 = complete control"}, "[18]": {"details": "Preemergence, 500 g ai/ha, visual injury, 0 to 100 scale (0 no effect, 100 complete control), approx. ten days"}, "[19]": {"details": "Postemergence, 125 g ai/ha, 0 to 100 scale where 0 is no effect and 100 is complete control"}, "[20]": {"details": "Postemergence, 500 g ai/ha, visual injury, 0 to 100 scale (0 no effect, 100 complete control), approx. ten days"}, "[21]": {"details": "Preemergence, 500 g ai/ha, 0 to 100 scale, 0 = no effect, 100 = complete control"}}, "data": [{"smiles": "O=C1CCCC([O-])=C1C(=O)c1cnc(-c2ccccc2)n(-c2ccc(Cl)cc2)c1=O.[K+]", "note": "[Compound 13]", "values": [{"measurement": "Plant response rating, Flood, Barnyardgrass", "setting": "[1]; [11]", "result": 35}, {"measurement": "Plant response rating, Barnyardgrass", "setting": "[1]; [12]", "result": 0}, {"measurement": "Plant response rating, Barnyardgrass", "setting": "[1]; [13]", "result": 0}, {"measurement": "Plant response rating, Barnyardgrass", "setting": "[1]; [14]", "result": 0}, {"measurement": "Plant response rating, Flood, Sedge, Umbrella", "setting": "[2]; [11]", "result": 85}, {"measurement": "Plant response rating, Sedge, Umbrella", "setting": "[2]; [12]", "result": 0}, {"measurement": "Plant response rating, Sedge, Umbrella", "setting": "[2]; [13]", "result": 0}, {"measurement": "Plant response rating, Sedge, Umbrella", "setting": "[2]; [14]", "result": 60}, {"measurement": "Plant response rating, Flood, Ducksalad", "setting": "[3]; [11]", "result": 95}, {"measurement": "Plant response rating, Ducksalad", "setting": "[3]; [12]", "result": 0}, {"measurement": "Plant response rating, Ducksalad", "setting": "[3]; [13]", "result": 0}, {"measurement": "Plant response rating, Ducksalad", "setting": "[3]; [14]", "result": 0}, {"measurement": "Plant response rating, Flood, Rice", "setting": "rice (Oryza sativa); [11]", "result": 25}, {"measurement": "Plant response rating, Rice", "setting": "rice (Oryza sativa); [12]", "result": 0}, {"measurement": "Plant response rating, Rice", "setting": "rice (Oryza sativa); [13]", "result": 0}, {"measurement": "Plant response rating, Rice", "setting": "rice (Oryza sativa); [14]", "result": 0}, {"measurement": "Velvetleaf plant response rating", "setting": "[4]; [15]", "result": 100}, {"measurement": "Plant response rating, Velvetleaf", "setting": "[4]; [16]", "result": 100}, {"measurement": "Plant response rating, Velvetleaf", "setting": "[4]; [17]", "result": 80}, {"measurement": "Plant response rating, Velvetleaf", "setting": "[4]; [18]", "result": 100}, {"measurement": "Barnyardgrass plant response rating", "setting": "[5]; [15]", "result": 30}, {"measurement": "Plant response rating, Barnyardgrass", "setting": "[5]; [16]", "result": 90}, {"measurement": "Plant response rating, Barnyardgrass", "setting": "[5]; [17]", "result": 10}, {"measurement": "Plant response rating, Barnyardgrass", "setting": "[5]; [18]", "result": 90}, {"measurement": "Foxtail, Giant plant response rating", "setting": "[6]; [15]", "result": 30}, {"measurement": "Plant response rating, Foxtail, Giant", "setting": "[6]; [16]", "result": 80}, {"measurement": "Plant response rating, Foxtail, Giant", "setting": "[6]; [17]", "result": 50}, {"measurement": "Plant response rating, Foxtail, Giant", "setting": "[6]; [18]", "result": 90}, {"measurement": "Corn plant response rating", "setting": "corn (Zea mays); [15]", "result": 0}, {"measurement": "Plant response rating, Corn", "setting": "corn (Zea mays); [16]", "result": 50}, {"measurement": "Plant response rating, Corn", "setting": "corn (Zea mays); [17]", "result": 0}, {"measurement": "Plant response rating, Corn", "setting": "corn (Zea mays); [18]", "result": 20}, {"measurement": "Morningglory plant response rating", "setting": "[7]; [15]", "result": 0}, {"measurement": "Plant response rating, Morningglory", "setting": "[7]; [16]", "result": 50}, {"measurement": "Plant response rating, Morningglory", "setting": "[7]; [17]", "result": 0}, {"measurement": "Plant response rating, Morningglory", "setting": "[7]; [18]", "result": 0}, {"measurement": "Pigweed plant response rating", "setting": "[8]; [15]", "result": 80}, {"measurement": "Plant response rating, Pigweed", "setting": "[8]; [16]", "result": 100}, {"measurement": "Plant response rating, Pigweed", "setting": "[8]; [17]", "result": 40}, {"measurement": "Plant response rating, Pigweed", "setting": "[8]; [18]", "result": 100}, {"measurement": "Crabgrass, Large plant response rating", "setting": "[9]; [15]", "result": 30}, {"measurement": "Plant response rating, Crabgrass, Large", "setting": "[9]; [16]", "result": 90}, {"measurement": "Plant response rating, Crabgrass, Large", "setting": "[9]; [17]", "result": 60}, {"measurement": "Plant response rating, Crabgrass, Large", "setting": "[9]; [18]", "result": 100}, {"measurement": "Wheat plant response rating", "setting": "[10]; [15]", "result": 10}, {"measurement": "Plant response rating, Wheat", "setting": "[10]; [16]", "result": 60}, {"measurement": "Plant response rating, Wheat", "setting": "[10]; [17]", "result": 0}, {"measurement": "Plant response rating, Wheat", "setting": "[10]; [18]", "result": 40}]}, {"smiles": "CCCn1c(-c2ccc3c(c2)OCCO3)ncc(C(=O)C2=C(O)C3CCC(C3)C2=O)c1=O", "note": "(centres unmarked) [Compound 241]", "values": [{"measurement": "Plant response rating, Velvetleaf", "setting": "[4]; [19]", "result": 100}, {"measurement": "Velvetleaf plant response rating", "setting": "[4]; [20]", "result": 100}, {"measurement": "Plant response rating, Velvetleaf", "setting": "[4]; [17]", "result": 20}, {"measurement": "Plant response rating, Velvetleaf", "setting": "[4]; [21]", "result": 60}, {"measurement": "Plant response rating, Barnyardgrass", "setting": "[5]; [19]", "result": 90}, {"measurement": "Barnyardgrass plant response rating", "setting": "[5]; [20]", "result": 90}, {"measurement": "Plant response rating, Barnyardgrass", "setting": "[5]; [17]", "result": 10}, {"measurement": "Plant response rating, Barnyardgrass", "setting": "[5]; [21]", "result": 90}, {"measurement": "Plant response rating, Foxtail, Giant", "setting": "[6]; [19]", "result": 80}, {"measurement": "Foxtail, Giant plant response rating", "setting": "[6]; [20]", "result": 90}, {"measurement": "Plant response rating, Foxtail, Giant", "setting": "[6]; [17]", "result": 10}, {"measurement": "Plant response rating, Foxtail, Giant", "setting": "[6]; [21]", "result": 70}, {"measurement": "Plant response rating, Corn", "setting": "corn (Zea mays); [19]", "result": 20}, {"measurement": "Corn plant response rating", "setting": "corn (Zea mays); [20]", "result": 50}, {"measurement": "Plant response rating, Corn", "setting": "corn (Zea mays); [17]", "result": 0}, {"measurement": "Plant response rating, Corn", "setting": "corn (Zea mays); [21]", "result": 20}, {"measurement": "Plant response rating, Morningglory", "setting": "[7]; [19]", "result": 100}, {"measurement": "Morningglory plant response rating", "setting": "[7]; [20]", "result": 100}, {"measurement": "Plant response rating, Morningglory", "setting": "[7]; [17]", "result": 0}, {"measurement": "Plant response rating, Morningglory", "setting": "[7]; [21]", "result": 30}, {"measurement": "Plant response rating, Pigweed", "setting": "[8]; [19]", "result": 70}, {"measurement": "Pigweed plant response rating", "setting": "[8]; [20]", "result": 80}, {"measurement": "Plant response rating, Pigweed", "setting": "[8]; [17]", "result": 20}, {"measurement": "Plant response rating, Pigweed", "setting": "[8]; [21]", "result": 50}, {"measurement": "Plant response rating, Crabgrass, Large", "setting": "[9]; [19]", "result": 50}, {"measurement": "Crabgrass, Large plant response rating", "setting": "[9]; [20]", "result": 70}, {"measurement": "Plant response rating, Crabgrass, Large", "setting": "[9]; [17]", "result": 20}, {"measurement": "Plant response rating, Crabgrass, Large", "setting": "[9]; [21]", "result": 90}, {"measurement": "Plant response rating, Wheat", "setting": "[10]; [19]", "result": 40}, {"measurement": "Wheat plant response rating", "setting": "[10]; [20]", "result": 60}, {"measurement": "Plant response rating, Wheat", "setting": "[10]; [17]", "result": 0}, {"measurement": "Plant response rating, Wheat", "setting": "[10]; [21]", "result": 40}]}]}
